Experimental data: patent US20040072907A1, “Antipicornaviral compounds, compositions containing them, and methods for their use” (priority 1997, published 2004)
Like-named read-outs stand apart in the source and are kept apart here. Values belong to the compound of their own block, whether it stands above or below them.

How the values were obtained:
[1] = system: HI-HeLa cells; assay: Cytotoxicity in mock-infected HI-HeLa cells (XTT, antirhinoviral assay); format: cell-based
Protocol: (§1) In the Cell Protection Assay, the ability of compounds to protect cells against HRV infection was measured by the XTT dye reduction method. This method is described in Weislow, O. S., Kiser, R., Fine, D. L., Bader, J., Shoemaker, R. H., Boyd, M. R., J. Natl. Cancer Inst. 1989, 81, 577-586, the disclosure of which is incorporated herein by reference.
(§2) Infected or mock-infected cells were resuspended at 8×10^5 cells per mL and incubated with appropriate concentrations of compounds of formula I. Two days later, XTT/PMS was added to test plates, and the amount of formazan produced was quantified spectrophotometrically at 450/650 nm. […] The therapeutic index (TI) was calculated by dividing the CC50 by the EC50.
HRV stocks were propagated, and viral assays were performed in HI-HeLa cells (ATCC). Cells were grown in Minimal Essential Medium, available from Life Technologies, with 10% fetal bovine serum.

[2] = system: HRV serotype 1A; assay: Antirhinoviral HI-HeLa cell culture assay (XTT cell protection), HRV-1A; format: cell-based, human rhinovirus; conditions: HI-HeLa cells
Protocol: as §1, §2
(§3) All strains of human rhinovirus (HRV) for use in this assay were purchased from American Type Culture Collection (ATCC) except for HRV serotype-14, which was produced from the infectious cDNA clone constructed and supplied to Applicants by Dr. Robert Rueckert at the Institute for Molecular Virology, University of Wisconsin, Madison, Wis. HRV stocks were propagated, and viral assays were performed in HI-HeLa cells (ATCC). Cells were grown in Minimal Essential Medium, available from Life Technologies, with 10% fetal bovine serum.
(§4) The compounds were tested against control compounds WIN 51711, WIN 52084, and WIN 54954, all obtained from Sterling-Winthrop Pharmaceuticals, and control compound Pirodavir, obtained from Janssen Pharmaceuticals. Antiviral data obtained for the test compounds are shown in Table 2 where all data are for HRV serotype-14 unless otherwise noted in parentheses.

[3] = system: HRV serotype-14; assay: Antirhinoviral HI-HeLa cell culture assay (XTT cell protection), HRV-14; format: cell-based, human rhinovirus; conditions: HRV serotype-14, HI-HeLa cells, m.o.i. 0.13, two days, XTT; read-out: EC50
Protocol: as §1, §2, §3, §4

[4] = system: HRV serotype 89; assay: Antirhinoviral HI-HeLa cell culture assay (XTT cell protection), HRV-89; format: cell-based, human rhinovirus; conditions: HRV serotype 89, HI-HeLa cells
Protocol: as §1, §2, §3, §4

[5] = system: HRV serotype 39; assay: Antirhinoviral HI-HeLa cell culture assay (XTT cell protection), HRV-39; format: cell-based, human rhinovirus; conditions: HRV serotype 39, HI-HeLa cells
Protocol: as §1, §2, §3, §4

[6] = system: HRV serotype 10; assay: Antirhinoviral HI-HeLa cell culture assay (XTT cell protection), HRV-10; format: cell-based, human rhinovirus; conditions: HRV serotype 10, HI-HeLa cells
Protocol: as §1, §2, §3, §4

[7] = target: T1, Recombinant Rhinovirus 3C protease serotype 14 (Human rhinovirus 14, UniProt P03303); assay: biochemical
T1 construct: Recombinant Rhinovirus 3C proteases from serotypes 14, 16, and 2; made in house
T1 sequence (P03303 1538-1719): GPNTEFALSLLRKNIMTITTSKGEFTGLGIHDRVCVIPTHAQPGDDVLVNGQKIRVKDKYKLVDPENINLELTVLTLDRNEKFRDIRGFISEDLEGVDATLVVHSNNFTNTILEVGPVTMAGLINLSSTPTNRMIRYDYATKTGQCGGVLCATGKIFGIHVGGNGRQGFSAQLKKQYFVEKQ

[8] = target: Recombinant Rhinovirus 3C protease serotype 16 (Human rhinovirus 16, UniProt Q82122); format: biochemical
Sequence of Recombinant Rhinovirus 3C protease serotype 16 (Q82122 1511-1693): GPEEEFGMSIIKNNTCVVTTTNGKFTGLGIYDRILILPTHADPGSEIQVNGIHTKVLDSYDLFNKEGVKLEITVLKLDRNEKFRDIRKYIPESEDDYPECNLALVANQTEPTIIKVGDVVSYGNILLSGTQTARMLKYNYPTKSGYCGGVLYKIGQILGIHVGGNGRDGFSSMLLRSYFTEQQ
Protocol: Stock solutions (50 mM, in DMSO) of various compounds were prepared; dilutions were in the same solvent. […] Assays contained 2% DMSO, 50 mM tris pH 7.6, 1 mM EDTA, a compound at the indicated concentrations, approximately 1 μM substrate, and 50-100 nM protease. […] The kobs/I values were obtained from reactions initiated by addition of enzyme rather than substrate. RVP activity is measured in the fluorescence resonance energy transfer assay. […] In the uncleavaed peptide, the EDANS fluorescence was quenched by the proximal DABCYL moiety. When the peptide was cleaved, the quenching was relieved, and activity was measured as an increase in fluorescence signal.
In the above table, all data are for RVP serotype-14 unless otherwise noted in parentheses. All strains of human rhinovirus (HRV) were purchased from American Type Culture Collection (ATCC) except for serotype 14, which was produced from the infectious cDNA clone constructed and supplied to Applicants by Dr. Robert Rueckert at the Institute for Molecular Virology, University of Wisconsin, Madison, Wis. The column designated INHIB represents the percent inhibition at 10 minute preincubation with 50 nM RVP prior to addition of substrate. The data in the column designated kobs/I was measured from progress curves enzyme start experiments.

[9] = target: T2, Recombinant Rhinovirus 3C protease serotype 2 (Human rhinovirus 2, UniProt P04936); format: biochemical
T2 construct: Recombinant Rhinovirus 3C proteases from serotypes 14, 16, and 2; made in house
T2 sequence (P04936 1508-1690): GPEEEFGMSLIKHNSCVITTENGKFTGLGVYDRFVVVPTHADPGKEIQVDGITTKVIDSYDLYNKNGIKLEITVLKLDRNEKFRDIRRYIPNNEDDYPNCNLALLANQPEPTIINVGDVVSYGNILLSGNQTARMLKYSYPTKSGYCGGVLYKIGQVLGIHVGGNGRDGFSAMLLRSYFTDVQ

[10] = system: HRV serotype 16; assay: Antirhinoviral HI-HeLa cell culture assay (XTT cell protection), HRV-16; format: cell-based, human rhinovirus; conditions: HRV serotype 16, HI-HeLa cells
Protocol: as §1, §2, §3, §4

[11] = mock-infected HI-HeLa cells, line for HRV serotype 1A, read-out: CC50
[12] = mock-infected HI-HeLa cells, line for HRV serotype 2, read-out: CC50
[13] = mock-infected HI-HeLa cells, line for HRV serotype 10, read-out: CC50
[14] = mock-infected HI-HeLa cells, line for HRV serotype 16, read-out: CC50
[15] = mock-infected HI-HeLa cells, line for HRV serotype 39, read-out: CC50
[16] = mock-infected HI-HeLa cells, line for HRV serotype 89, read-out: CC50
[17] = mock-infected HI-HeLa cells, line for HRV serotype-14, read-out: CC50
[18] = RVP serotype-14, progress curves, enzyme start experiments

- EC50 [2]: 170 nM
- EC50 [3]: 20 nM
- EC50 [4]: 80 nM
Compound: CCOC(=O)/C=C/C(CCC(N)=O)NC(=O)C(CC(=O)C(NC(=O)SC1CCCC1)C(C)C)Cc1ccc(F)cc1 (stereo not shown) [Compound 14]
- CC50 [1, 11]: > 10000 nM
- CC50 [1, 12]: > 10000 nM
- CC50 [1, 13]: > 10000 nM
- CC50 [1, 14]: > 10000 nM
- CC50 [1, 15]: > 10000 nM
- CC50 [1, 16]: > 10000 nM
- CC50 [1, 17]: > 10000 nM

- EC50 [3]: 50 nM
- EC50 [5]: 200 nM
- EC50 [6]: 150 nM
- EC50 [4]: 80 nM
Compound: CCOC(=O)/C=C/C(CCC(N)=O)NC(=O)C(CC(=O)C(NC(=O)SC1CCCC1)C(C)C)Cc1ccc(C(F)(F)F)cc1 [Compound 16, Ethyl-3-(CyPentylSCO-L-ValΨ[COCH2]-L-(p-CF3)Phe-L-Gln)-E-Propenoate]
- CC50 [1, 11]: > 3000 nM
- CC50 [1, 12]: > 3000 nM
- CC50 [1, 13]: > 3000 nM
- CC50 [1, 14]: > 3000 nM
- CC50 [1, 15]: > 3000 nM
- CC50 [1, 16]: > 3000 nM
- CC50 [1, 17]: > 3000 nM

Compound: CCOC(=O)/C=C/C(CCC(N)=O)NC(=O)C(CC(=O)C(CC(C)C)NC(=O)OCc1ccccc1)Cc1ccccc1 [Compound 1, Ethyl-3-(CBZ-L-LeuΨ[COCH2]-L-Phe-L-Gln)-E-Propenoate]
- CC50 [1, 17]: > 320000 nM

Compound: CCOC(=O)/C=C/[C@H](CCC(N)=O)NC(=O)[C@@H](CC(=O)[C@@H](NC(=O)SCC)C(C)C)Cc1ccc(C(F)(F)F)cc1 [Compound 15, Ethyl-3-(EtSCO-L-ValΨ[COCH2]-L-(p-CF3)Phe-L-Gln)-E-Propenoate]
- CC50 [1, 17]: > 1000 nM
- EC50 [3]: 63 nM
- kobs/I [7, 18]: 127,000 M^−1sec^−1

Compound: Cc1cc(CCCCCCCOc2ccc(C3=N[C@@H](C)CO3)cc2)on1 [WIN 52084, reference compound]
- CC50 [1, 17]: > 10000 nM
- EC50 [3]: 70 nM

Compound: CCOC(=O)/C=C/C(CCC(N)=O)NC(=O)C(CC(=O)C(Cc1ccccc1)NC(=O)SC1CCCC1)Cc1ccc(C)cc1 [Compound 12, Ethyl-3-(CyPentylSCO-L-PheΨ[COCH2]-L-(p-CH3)Phe-L-Gln)-E-Propenoate]
- CC50 [1, 17]: > 1000 nM
- EC50 [3]: 140 nM
- kobs/I [7, 18]: 404,000 M^−1sec^−1

Compound: CCOC(=O)/C=C/C(CCC(N)=O)NC(=O)C(CC(=O)C(NC(=O)SCc1ccccc1)C(C)C)Cc1ccccc1 [Compound 5, Ethyl-3-(BnSCO-L-ValΨ[COCH2]-L-Phe-L-Gln)-E-Propenoate]
- kobs/I [8]: 89,700 M^−1sec^−1
- kobs/I [9]: 26,900 M^−1sec^−1
- kobs/I [7]: 500,000 M^−1sec^−1

- EC50 [2]: 430 nM
- EC50 [10]: 400 nM
- EC50 [3]: 50 nM
- EC50 [5]: 400 nM
Compound: CCOC(=O)/C=C/C(CCC(N)=O)NC(=O)C(CC(=O)C(NC(=O)SC1CCCC1)C(C)(C)C)Cc1ccccc1 [Compound 22, Ethyl-3-(CyPentylSCO-L-tert-LeuΨ[COCH2]-L-Phe-L-Gln)-E-Propenoate]
- CC50 [1, 11]: > 32000 nM
- CC50 [1, 12]: > 32000 nM
- CC50 [1, 13]: > 32000 nM
- CC50 [1, 14]: > 32000 nM
- CC50 [1, 15]: > 32000 nM
- CC50 [1, 16]: > 32000 nM
- CC50 [1, 17]: > 32000 nM

Compound: CCOC(=O)/C=C/[C@H](CCC(N)=O)NC(=O)[C@@H](CC(=O)[C@@H](NC(=O)SCC)C(C)C)Cc1ccc(C)cc1 [Compound 10, Ethyl-3-(EtSCO-L-ValΨ[COCH2]-L-(p-CH3)Phe-L-Gln)-E-Propenoate]
- CC50 [1, 12]: > 1000 nM
- kobs/I [7]: 440,000 M^−1sec^−1

Compound: CCOC(=O)/C=C/C(CCC(N)=O)NC(=O)C(CC(=O)C(NC(=O)SC1CCCC1)C(C)C)Cc1ccc(C)cc1 [Compound 11, Ethyl-3-(CyPentylSCO-L-ValΨ[COCH2]-L-(p-CH3)Phe-L-Gln)-E-Propenoate]
- CC50 [1, 11]: > 3000 nM
- CC50 [1, 12]: > 3000 nM
- CC50 [1, 13]: > 3000 nM
- CC50 [1, 14]: > 3000 nM
- CC50 [1, 15]: > 3000 nM
- kobs/I [7]: 850,000 M^−1sec^−1

Compound: CC(=O)N1CC/C(=C\C(CCC(N)=O)NC(=O)C(CC(=O)C(NC(=O)SC2CCCC2)C(C)C)Cc2ccc(C)cc2)C1=O [Compound 17, [CyPentylSCO-L-ValΨ[COCH2]-L-(p-CH3)Phe-L-Gln]-E-1-Acetyl-3-methylene-pyrrolidin-2-one]
- CC50 [1, 12]: > 10000 nM
- CC50 [1, 15]: > 10000 nM
- CC50 [1, 17]: > 10000 nM
- EC50 [3]: 27 nM
- EC50 [5]: 480 nM

Compound: CCOC(=O)/C=C/[C@H](CCC(N)=O)NC(=O)[C@@H](CC(=O)[C@@H](NC(=O)SCC)C(C)C)Cc1ccc(F)cc1 [Compound 13, Ethyl-3-(EtSCO-L-ValΨ[COCH2]-L-(p-F)Phe-L-Gln)-E-Propenoate]
- CC50 [1, 17]: > 3000 nM

Compound: CCOC(=O)/C=C/C(CCC(N)=O)NC(=O)C(CC(=O)C(Cc1ccccc1)NC(=O)SC1CCCC1)Cc1ccc(F)cc1 [Compound 18, Ethyl-3-(CyPentylSCO-L-PheΨ[COCH2]-L-(p-F)Phe-L-Gln)-E-Propenoate]
- CC50 [1, 17]: > 3000 nM
- EC50 [3]: 480 nM
- kobs/I [7, 18]: 127,400 M^−1sec^−1

Compound: CCOC(=O)/C=C/[C@H](CCC(N)=O)NC(=O)[C@@H](CC(=O)[C@H](CC(C)C)NC(=O)SC1CCCC1)Cc1ccccc1 [Compound 8, Ethyl-3-(CyPentylSCO-L-LeuΨ[COCH2]-L-Phe-L-Gln)-E-Propenoate]
- kobs/I [8]: 14,200 M^−1sec^−1
- kobs/I [9]: 7,000 M^−1sec^−1
- kobs/I ([9]; RVP serotype 2, progress curves, enzyme start experiments): 7,000 M^−1sec^−1
- kobs/I [7]: 55,700 M^−1sec^−1

Compound: CCOC(=O)/C=C/C(CCC(N)=O)NC(=O)C(CC(=O)C(CC(C)C)NC(=O)SCc1ccccc1)Cc1ccccc1 [Compound 6, Ethyl-3-(BnSCO-L-LeuΨ[COCH2]-L-Phe-L-Gln)-E-Propenoate]
- kobs/I [8]: 23,230 M^−1sec^−1
- kobs/I [9]: 13,350 M^−1sec^−1
- kobs/I [7]: 87,600 M^−1sec^−1

Compound: Cc1cc(CCCCCCCOc2ccc(C3=NCCO3)cc2)on1 [WIN 51711, reference compound]
- CC50 [1, 17]: > 60000 nM
- EC50 [3]: 780 nM

Compound: Ethyl-3-(CyPentylSCO-L-CyhexΨ[COCH2]-L-(p-F)Phe-L-Gln)-E-Propenoate [Compound 24]
- CC50 [1, 17]: > 3000 nM

Compound: CCOC(=O)/C=C/C(CCC(N)=O)NC(=O)C(CC(=O)C(NC(=O)CC1CCCC1)C(C)C)Cc1ccc(C)cc1 (stereo not shown) [Compound 23]
- CC50 [1]: > 10000 nM
- EC50 [3]: 20900 nM
- kobs/I [7, 18]: 36,500 M^−1sec^−1

Compound: CCOC(=O)/C=C/[C@H](CCC(N)=O)NC(=O)[C@@H](CC(=O)[C@@H](NC(=O)SCC)C(C)C)Cc1ccccc1 [Compound 4, Ethyl-3-(EtSCO-L-ValΨ[COCH2]-L-Phe-L-Gln)-E-Propenoate]
- CC50 [1, 17]: > 320000 nM
- kobs/I [8]: 34,600 M^−1sec^−1
- kobs/I [9]: 17,800 M^−1sec^−1
- kobs/I [7]: 180,000 M^−1sec^−1

Compound: CCOC(=O)/C=C/[C@H](CCC(N)=O)NC(=O)[C@@H](CC(=O)[C@H](CC(C)C)NC(=O)SCC)Cc1ccccc1 [Compound 2, Ethyl-3-(EtSCO-L-LeuΨ[COCH2]-L-Phe-L-Gln)-E-Propenoate]
- CC50 [1, 12]: > 320000 nM
- kobs/I [8]: 10,410 M^−1sec^−1
- kobs/I [9]: 4,600 M^−1sec^−1
- kobs/I [7]: 47,000 M^−1sec^−1
